The values below come from patent US6686382B2, “Sulfonamides and derivatives thereof that modulate the activity of endothelin” (Encysive Pharmaceuticals Inc., priority 1999, dated 2004).

Series [1] has as its target T1, human ETA receptors (Homo sapiens, UniProt P25101).
T1 construct: endogenous in cells; host or cells: TE 671 cells (ATCC HTB 139), membrane preparation
T1 sequence (P25101 21-427): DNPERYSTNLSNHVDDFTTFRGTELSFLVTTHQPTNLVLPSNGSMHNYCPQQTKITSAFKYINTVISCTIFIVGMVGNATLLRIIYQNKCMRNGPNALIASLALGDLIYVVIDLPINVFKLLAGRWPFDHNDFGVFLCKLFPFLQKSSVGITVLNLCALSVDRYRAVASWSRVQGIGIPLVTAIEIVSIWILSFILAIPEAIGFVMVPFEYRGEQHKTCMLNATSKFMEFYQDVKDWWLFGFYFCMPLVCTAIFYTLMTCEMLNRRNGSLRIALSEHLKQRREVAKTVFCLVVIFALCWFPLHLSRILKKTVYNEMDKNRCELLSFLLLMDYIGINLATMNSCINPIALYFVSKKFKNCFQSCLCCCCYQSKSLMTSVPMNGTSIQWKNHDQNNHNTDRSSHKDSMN
Nature of the series: Endothelin binding inhibition, Binding Test #1: inhibition of binding to ETA receptors (TE 671 cell membranes). The following applies: relative to N-(4-chloro-3-methyl-5-isoxazolyl)-2-{[3,4-(methylenedioxy)-6-methylphenyl)acetyl]-thiophene-3-sulfonamide (= 1.0). The source says: (§1) Compounds that are potential endothelin antagonists are identified by testing their ability to compete with ^125I-labeled ET-1 for binding to human ETA receptors or ETB receptors present on isolated cell membranes. The effectiveness of the test compound as an antagonist or agonist of the biological tissue response of endothelin can also be assessed by measuring the effect on endothelin induced contraction of isolated rat thoracic aortic rings. The ability of the compounds to act as antagonists or agonists for ETB receptors can be assess by testing the ability of the compounds are to inhibit endothelin-1 induced prostacyclin release from cultured bovine aortic endothelial cells.
(§2) A. Endothelin Binding Inhibition—Binding Test #1: Inhibition of Binding to ETA Receptors
(§3) TE 671 cells (ATCC Accession No. HTB 139) express ETA receptors. These cells were grown to confluence in T-175 flasks. Cells from multiple flasks were collected by scraping, pooled and centrifugedfor 10 min at 190×g. The cells were resuspended in phosphate buffered saline (PBS) containing 10 mM EDTA using a Tenbroeck homogenizer. The suspension was centrifuged at 4° C. at 57,800×g for 15 min, the pellet was resuspended in 5 ml of buffer A (5 mM HEPES buffer, pH 7.4 containing aprotinin (100 KIU/ml)) and then frozen and thawed once. 5 ml of Buffer B (5 mM HEPES Buffer, pH 7.4 containing 10 mM MnCl2 and 0.001% deoxyribonuclease Type 1) was added, the suspension mixed by inversion and then incubated at 37° C. for 30 minutes. The mixture was centrifuged at 57,800×g as described above, the pellet washed twice with buffer A and then resuspended in buffer C (30 mM HEPES buffer, pH 7.4 containing aprotinin (100 KIU/ml) to give a final protein concentration of 2 mg/ml and stored at −70° C. until use.
(§4) The membrane suspension was diluted with binding buffer (30 mM HEPES buffer, pH 7.4 containing 150 mM NaCl, 5 mM MgCl2, 0.5% Bacitracin) to a concentration of 8 μg/50 μl. ^125I-endothelin-1 (3,000 cpm, […]) was added to 50 μL of either: (A) endothelin-1 (for non specific binding) to give a final concentration 80 nM); (B) binding buffer (for total binding); or (C) a test compound (final concentration 1 nM to 100 μM). The membrane suspension (50 μL), containing up to 8 μg of membrane protein, was added to each of (A), (B), or (C). Mixtures were shaken, and incubated at 4° C. for 16-18 hours, and then centrifuged at 4° C. for 25 min at 2,500×g. Alternatively, the incubation was conducted at 24° C. […] This, must be kept in mind when comparing IC50 concentrations among compounds provided herein.
(§5) The supernatant, containing unbound radioactivity, was decanted and the pellet counted on a Genesys multiwell gamma counter. The degree of inhibition of binding (D) was calculated according to the following equation: [formula]
Each test was generally performed in triplicate.

The test system of series [2] is ETA receptors and ETB receptors. Nature of the series: Endothelin binding inhibition, ETA (TE 671) and ETB (transfected COS7) receptors: selectivity. The arrangement: species or system human. As to conditions: antagonism of ETA receptors over ETB receptors.
Description: as §1, §2, §3, §4, §5
B. Endothelin Binding Inhibition—Binding Test #2: Inhibition of Binding to ETB Receptors
COS7 cells were transfected with DNA encoding the ETB receptor, The resulting cells, which express the human ETB receptor, were grown to confluence in T-150 flasks. Membrane was prepared as described above. The binding assay was performed as described above using the membrane preparation diluted with binding buffer to a concentration of 1 μg/50 μl.
Briefly, the COS7 cells, described above, that had been transfected with DNA encoding the ETB receptor and express the human ETB receptor on their surfaces were grown to confluence in T-175 flasks. […]

Series [3] in a line: Pharmacokinetic properties (oral availability, elimination half-life, Cmax). The series is classed as in vivo. The source says: As used herein, bioavailability or oral availability refers to the rate and extent of absorption. Methods for determining bioavailability or oral availability are well known to those of skill in the art. For example, bioavailability or oral availability of any of the compounds described herein can be determined empirically by administration of the compound to an animal, followed by taking blood samples over time and measuring the blood concentration of the compound. In vivo half life (t1/2) is defined as the time it takes for the concentration of the compound in the blood to be reduced by one-half. Estimations of the area under the curve for intravenous administration can be used to estimate the area under the curve for oral administration, yielding bioavailability data. See, e.g., Milo Gibal (1991) Biopharmaceutics and Pharmacology, 4th edition (Lea and Sediger).

Series [4] has as its target ETA receptor. The following applies: read-out: IC50, inhibition of 125I-labelled endothelin-1 binding, cited from earlier work.
The test system of series [5] is ETB receptors. As to conditions: concentrations up to 100 μM; cited from earlier work.
In series [6] the test system is isolated vascular strips. The following applies: read-out: EC50, contractile agent; cited from earlier work.

Where two headings read alike, the source gives them in different places.

As for `CO/N=C(\C)c1cc(C)cc(C)c1NC(=O)c1sccc1S(=O)(=O)Nc1onc(C)c1Cl` [Compound 22, 3-{[(4-chloro-3-methyl-5-isoxazolyl)amino]sulfonyl}-N-{2,4-dimethyl-6-[(methyloxy)ethanimidoyl]phenyl}-2-thiophene carboxamide], the melting point (in general, the temperature of the solid-liquid transition) is 140 to 145 °C. Moreover, in series [1], the “ETA ACTIVITY (ETA antagonist activity relative to reference compound)” value came to 23.6.

On to `Cc1cc(C)c(OS(=O)(=O)N(C)C)c(C)c1NC(=O)c1sccc1S(=O)(=O)Nc1onc(C)c1Cl` [Compound 24, 3-{[(3-{[(4-chloro-3-methyl-5-isoxazolyl)amino]sulfonyl}-2-thiophenyl)carbonyl]amino}-2,4,6-trimethylphenyl-N,N-dimethylsulfamate], for which the melting point lay in the range of 169 to 174 °C.

For the compound `Cc1cc(C)c(OCC2CC2)c(C)c1NC(=O)c1sccc1S(=O)(=O)Nc1onc(C)c1Cl` [Compound 26, 3-{[(4-chloro-3-methyl-5-isoxazolyl)amino]sulfonyl}-N-{3-[(cyclopropylmethyl)oxy]-2,4,6-trimethylphenyl}-2-thiophenecarboxamide], the melting point was 155 to 158 °C. In addition, the “ETA ACTIVITY (ETA antagonist activity relative to reference compound)” value in series [1] is listed as 9.4.

With `Cc1nc(C)c(NC(=O)c2sccc2S(=O)(=O)Nc2onc(C)c2Cl)c(C)n1` [Compound 28, 3-{[(4-chloro-3-methyl-5-isoxazolyl)amino]sulfonyl}-N-(2,4,6-trimethyl-5-pyrimidinyl)-2-thiophenecarboxamide], the melting point is 170 to 175 °C. In addition, the “ETA ACTIVITY (ETA antagonist activity relative to reference compound)” value in series [1] is recorded as 2.0.

The compound `CC(=O)c1c(C)c(C)cc(C)c1NC(=O)c1sccc1S(=O)(=O)Nc1onc(C)c1Cl` [Compound 30, N-(2-acetyl-3,4,6-trimethylphenyl)-3-{[(4-chloro-3-methyl-5-isoxazolyl)amino]sulfonyl}-2-thiophenecarboxamide] returned a melting point of 223 to 225 °C. In addition, the “ETA ACTIVITY (ETA antagonist activity relative to reference compound)” value in series [1] stood at 103.8.

Regarding `CCCc1c(O)c(C(C)=O)cc(C(C)=O)c1NC(=O)c1sccc1S(=O)(=O)Nc1onc(C)c1Cl` [Compound 36], the melting point was 163 to 167 °C. Besides, the “ETA ACTIVITY (ETA antagonist activity relative to reference compound)” value in series [1] came out at 0.1.

`Cc1cc(C)c(NC(=O)c2sccc2S(=O)(=O)Nc2onc(C)c2Cl)c(C(=O)N(C)CC(C)(C)C)c1` [Compound 40, 3-{[(4-chloro-3-methyl-5-isoxazolyl)amino]sulfonyl}-N-(2,4-dimethyl-6-{[methyl(2,2-dimethylpropyl)amino]carbonyl}phenyl)-2-thiophenecarboxamide] had a melting point of 174 to 176 °C. For the same compound, the “ETA ACTIVITY (ETA antagonist activity relative to reference compound)” value in series [1] is reported as 2.7.

`Cc1cc(C)c(NC(=O)c2sccc2S(=O)(=O)Nc2onc(C)c2Cl)c(-c2ncco2)c1` [Compound 44, 3-{[(4-chloro-3-methyl-5-isoxazolyl)amino]sulfonyl}-N-[2,4-dimethyl-6-(1,3-oxazol-2-yl)phenyl]-2-thiophenecarboxamide]: the melting point was 176 to 178 °C. In addition, the “Selectivity (IC50 for ETB/IC50 for ETA)” value in series [2] is 119,000. Moreover, in series [3] (blood, read-out: t½ elim. (converted)), the half-life was 5.3 h. Also, the highest level in series [3] (in vivo) (Cmax) was 66 µg/mL. The “ETA ACTIVITY (ETA antagonist activity relative to reference compound)” value in series [1] was found to be 17.9.

Consider `CCCS(=O)(=O)c1cc(C)cc(C)c1NC(=O)c1sccc1S(=O)(=O)Nc1onc(C)c1Cl` [Compound 48, 3-{[(4-chloro-3-methyl-5-isoxazolyl)amino]sulfonyl)-N-[2,4-dimethyl-6-(propylsulfonyl)phenyl]-2-thiophenecarboxamide], for which the melting point is 152 to 155 °C.

`CCc1cc(C)cc(C)c1NC(=O)c1sccc1S(=O)(=O)Nc1onc(C)c1Cl` [Compound 50, 3-{[(4-chloro-3-methyl-5-isoxazolyl)amino]sulfonyl}-N-(2-ethyl-4,6-dimethylphenyl)-2-thiophenecarboxamide] returned a melting point of 152 to 154 °C. Also, the “ETA ACTIVITY (ETA antagonist activity relative to reference compound)” value in series [1] is recorded as 3.8.

Consider `Cc1cc(-c2ncco2)cc(C)c1NC(=O)c1sccc1S(=O)(=O)Nc1onc(C)c1Cl` [Compound 52, 3-{[(4-chloro-3-methyl-5-isoxazolyl)amino]sulfonyl}-N-[2,6-dimethyl-4-(1,3-oxazol-2-yl)phenyl]-2-thiophenecarboxamide], for which the melting point lay within 205 to 207 °C. Further, the “ETA ACTIVITY (ETA antagonist activity relative to reference compound)” value in series [1] was determined as 1.1.

Turning to “cyclo(D-Glu-L-Ala-allo-D-Ile-L-Leu-D-Trp) [BE-18257B]”, the IC50 (commonly the concentration at which inhibition is half-maximal) in series [4] (aortic smooth muscle) was 1400 nM; in series [4] (cultured aortic smooth muscle cells), 500 nM; in series [4] (ventricle membranes), 800 nM. Besides, the “inhibition of binding to receptors in tissues in which ETB receptors predominate” value in series [5] was “fails to inhibit binding”.

With “endothelin-1: potent twenty-one amino acid peptide vasoconstrictor”, the EC50 (in general, the concentration at which the effect is half-maximal) in series [6] was 0.4 nM.
